Where two headings read alike, the source gives them in different places.
How the values were obtained:
[1] = test system: dendritic cells; assay: Induction of IL-12 secretion in dendritic cells (ELISA); format: cell-based, BALB/c mice; conditions: casuarine alone, absence of LPS; 1 μg/ml versus 40 μg/ml
[2] = target: T1, α-D-glucosidase (Saccharomyces cerevisiae, UniProt P53341); assay: Glycosidase inhibition (p-nitrophenyl substrate): α-D-glucosidase, yeast; format: biochemical, Saccharomyces cerevisiae (Baker's yeast)
T1 construct: purchased Sigma
Description: All enzymes were purchased from Sigma, as were the appropriate p-nitrophenyl substrates. Assays were carried out in microtitre plates. Enzymes were assayed in 0.1M citric acid/0.2M di-sodium hydrogen phosphate (McIlvaine) buffers at the optimum pH for the enzyme. All assays were carried out at 20° C. For screening assays the incubation assay consisted of 10 μl of enzyme solution, 10 μl of inhibitor solution (made up in water) and 50 μl of the appropriate 5 mM p-nitrophenyl substrate (3.57 mM final conc.) made up in McIlvaine buffer at the optimum pH for the enzyme.
The reactions were stopped with 0.4M glycine (pH 10.4) during the exponential phase of the reaction, which was determined at the beginning of the assay using blanks with water, which were incubated for a range of time periods to measure the reaction rate using 5 mM substrate solution. Endpoint absorbances were read at 405 nm with a Biorad microtitre plate reader (Benchmark). Water was substituted for the inhibitors in the blanks.

[3] = test system: α-D-glucosidase; assay: Glycosidase inhibition: α-D-glucosidase, Bacillus; format: biochemical, Bacillus stearothermophilus; conditions: 1 mg/ml
In short: (§1)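 Absorbance at 405 nm of released p-nitrophenol gives activity after a glycine pH 10.4 stop timed to the exponential phase. Incubations run at 20° C in citrate/phosphate buffer at optimum pH with 3.57 mM final p-nitrophenyl substrate.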

[4] = target: T2, α-L-fucosidase (Bos taurus, UniProt Q2KIM0); assay: Glycosidase inhibition: α-L-fucosidase; format: biochemical, Bovine; conditions: 1 mg/ml; read-out: % inhibition, fucosidase
T2 construct: purchased Sigma
T2 sequence (Q2KIM0 23-468): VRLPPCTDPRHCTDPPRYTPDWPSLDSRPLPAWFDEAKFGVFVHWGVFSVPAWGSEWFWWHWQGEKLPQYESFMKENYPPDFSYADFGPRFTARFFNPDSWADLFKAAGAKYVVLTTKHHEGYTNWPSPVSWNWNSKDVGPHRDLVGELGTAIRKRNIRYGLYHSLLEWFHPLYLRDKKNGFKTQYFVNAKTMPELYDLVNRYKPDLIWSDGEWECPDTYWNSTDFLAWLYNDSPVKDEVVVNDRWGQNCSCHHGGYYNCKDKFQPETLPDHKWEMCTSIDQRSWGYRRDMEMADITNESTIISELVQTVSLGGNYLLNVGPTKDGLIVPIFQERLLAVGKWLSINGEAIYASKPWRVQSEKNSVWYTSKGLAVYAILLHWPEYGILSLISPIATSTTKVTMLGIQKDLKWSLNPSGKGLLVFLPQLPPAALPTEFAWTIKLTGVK
In short: as §1

[5] = test system: MCF-7 cells; assay: Effect on glycosylation of breast cancer cells (N-glycan HPLC); format: cell-based; conditions: 0.75 mM, 62 and 86 hour time points
Description: MCF-7 cells (European Collection of Cell Cultures Ref. 86012803) were taken from liquid nitrogen stock, thawed at room temperature and transferred to 10 ml Dulbeccos Modified Eagle's Medium with Hams F12, 15 mM Hepes and L-glutamine (DMEM: Cambrex Cat. No. BE12-719F) supplemented with 10% v/v foetal calf serum (FCS: BioWest Labs Cat. No. S02755, Lot. No. S1800). The FCS was pre-filtered through a 0.2 μm sterile filter.
The cells were then centrifuged at 1,500 rpm in a Centaur bench-top centrifuge and the supernatant removed. The cells were reconstituted in fresh media and seeded into two T75 cm^3 Nunclon tissue culture flasks and allowed to settle overnight at 37° C. in a 5% CO2 incubator. The flasks were wrapped in cling film to prevent cross-contamination and the following day the media was changed to include the antibiotics penicillin and streptomycin as a precautionary measure against infection (at concentrations of 1 mg/cm^3 and 5 mg/cm^3, respectively). […]
The cells were harvested using a non-enzymatic method. At each of the time points the cells were viewed under the inverted light microscope and the morphology evaluated. […] The number of cells was then counted in a haemocytometer and cell viability evaluated by mixing 0.1 cm^3 of each cell suspension with a drop of trypan blue solution. […]
Evaluated using the BioRad protein assay according to the manufacturer's instructions. […]

[6] = test system: Na^+-dependent D-glucose uptake; assay: Na+-dependent D-glucose uptake into intestinal brush border membrane vesicles; format: biochemical, ovine
[7] = test system: HSV-1 (SC16)
[8] = Group 1: 15 mg/kg i.p. daily, day 0
[9] = Group 1: 15 mg/kg i.p. daily, day 1
[10] = Group 1: 15 mg/kg i.p. daily, day 2
[11] = Group 1: 15 mg/kg i.p. daily, day 3
[12] = Group 1: 15 mg/kg i.p. daily, day 4
[13] = Group 1: 15 mg/kg i.p. daily, day 5
[14] = Group 1: 15 mg/kg i.p. daily, day 6
[15] = Group 1: 15 mg/kg i.p. daily, day 7
[16] = Group 1: 15 mg/kg i.p. daily, day 8
[17] = Group 1: 15 mg/kg i.p. daily, day −2
[18] = Group 2: 150 mg/kg i.p. daily, day 0
[19] = Group 2: 150 mg/kg i.p. daily, day 1
[20] = Group 2: 150 mg/kg i.p. daily, day 2
[21] = Group 2: 150 mg/kg i.p. daily, day 3
[22] = Group 2: 150 mg/kg i.p. daily, day 4
[23] = Group 2: 150 mg/kg i.p. daily, day 5
[24] = Group 2: 150 mg/kg i.p. daily, day 6
[25] = Group 2: 150 mg/kg i.p. daily, day 7
[26] = Group 2: 150 mg/kg i.p. daily, day 8
[27] = Group 2: 150 mg/kg i.p. daily, day −2

T1 sequence (P53341 whole entry): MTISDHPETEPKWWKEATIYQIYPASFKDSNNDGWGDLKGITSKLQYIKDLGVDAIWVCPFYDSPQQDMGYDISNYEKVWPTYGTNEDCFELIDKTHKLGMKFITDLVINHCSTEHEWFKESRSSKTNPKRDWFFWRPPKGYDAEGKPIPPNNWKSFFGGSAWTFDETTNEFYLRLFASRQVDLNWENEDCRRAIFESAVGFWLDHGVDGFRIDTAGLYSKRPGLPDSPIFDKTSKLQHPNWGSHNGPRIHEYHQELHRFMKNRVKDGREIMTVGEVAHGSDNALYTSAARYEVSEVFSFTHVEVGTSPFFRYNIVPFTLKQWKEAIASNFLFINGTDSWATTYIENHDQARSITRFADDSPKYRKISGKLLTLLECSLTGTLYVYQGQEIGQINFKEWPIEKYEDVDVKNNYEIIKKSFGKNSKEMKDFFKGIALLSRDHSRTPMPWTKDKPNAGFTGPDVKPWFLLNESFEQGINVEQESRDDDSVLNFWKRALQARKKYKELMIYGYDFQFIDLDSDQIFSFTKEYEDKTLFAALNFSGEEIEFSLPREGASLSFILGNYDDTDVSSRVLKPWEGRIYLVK

## OC[C@@H]1[C@@H](O)[C@H](O)[C@H]2[C@H](O)[C@@H](O)CN21 [casuarine (8)]
[1]
  induction of IL-12 secretion, dose response: higher at low doses than high
[2]
  Ki: 217 µM
[2]; 1 mg/ml, read-out: % inhibition, gluc (yeast)
  inhibition at 1000 µg/mL: 64%
[3]
  % inhibition, gluc (Bacillus): 86%
[4]
  inhibition at 1000 µg/mL: -1%
[5]
  glycan synthesis and/or N-linked glycosylation in breast cancer cells: can inhibit glycan synthesis and/or N-linked glycosylation
[6]; initial rate, competition with labelled D-glucose, control 240
  Glucose uptake: 265 pmol/s/mg
[6]; versus control
  glucose transport, effect: slightly stimulated
[7]; [8]
  Group mean weight: 16.7 g
  Weight (% change): 3.1%
[7]; [9]
  Group mean weight: 17.1 g
  Weight (% change): 5.6%
[7]; [10]
  Group mean weight: 17.1 g
  Weight (% change): 5.6%
[7]; [11]
  Group mean weight: 17.6 g
  Weight (% change): 8.6%
[7]; [12]
  Group mean weight: 17.4 g
  Weight (% change): 7.4%
[7]; [13]
  Group mean weight: 17.6 g
  Weight (% change): 8.6%
[7]; [14]
  Group mean weight: 17.7 g
  Weight (% change): 9.2%
[7]; [15]
  Group mean weight: 17.4 g
  Weight (% change): 7.4%
[7]; [16]
  Group mean weight: 17.7 g
  Weight (% change): 9.3%
[7]; [17]
  Group mean weight: 16.2 g
  Weight (% change): 0%
[7]; [18]
  Group mean weight: 16 g
  Weight (% change): 3.2%
[7]; [19]
  Group mean weight: 16.4 g
  Weight (% change): 5.8%
[7]; [20]
  Group mean weight: 16.3 g
  Weight (% change): 5.2%
[7]; [21]
  Group mean weight: 16.6 g
  Weight (% change): 7.1%
[7]; [22]
  Group mean weight: 16.4 g
  Weight (% change): 5.8%
[7]; [23]
  Group mean weight: 16.8 g
  Weight (% change): 8.4%
[7]; [24]
  Group mean weight: 17 g
  Weight (% change): 9.7%
[7]; [25]
  Group mean weight: 16.7 g
  Weight (% change): 7.7%
[7]; [26]
  Group mean weight: 16.8 g
  Weight (% change): 8.4%
[7]; [27]
  Group mean weight: 15.5 g
  Weight (% change): 0%
[7]; versus infected untreated group
  ear thickness response: produced a reduction in ear thickness
